Changes are numbered by the printed parent chain.

In assay [1] the target is T1, CPT II WT (Homo sapiens, UniProt P23786).
T1 construct: made in house; host or cells: Escherichia coli BL21Gold DE
T1 sequence (P23786 26-658): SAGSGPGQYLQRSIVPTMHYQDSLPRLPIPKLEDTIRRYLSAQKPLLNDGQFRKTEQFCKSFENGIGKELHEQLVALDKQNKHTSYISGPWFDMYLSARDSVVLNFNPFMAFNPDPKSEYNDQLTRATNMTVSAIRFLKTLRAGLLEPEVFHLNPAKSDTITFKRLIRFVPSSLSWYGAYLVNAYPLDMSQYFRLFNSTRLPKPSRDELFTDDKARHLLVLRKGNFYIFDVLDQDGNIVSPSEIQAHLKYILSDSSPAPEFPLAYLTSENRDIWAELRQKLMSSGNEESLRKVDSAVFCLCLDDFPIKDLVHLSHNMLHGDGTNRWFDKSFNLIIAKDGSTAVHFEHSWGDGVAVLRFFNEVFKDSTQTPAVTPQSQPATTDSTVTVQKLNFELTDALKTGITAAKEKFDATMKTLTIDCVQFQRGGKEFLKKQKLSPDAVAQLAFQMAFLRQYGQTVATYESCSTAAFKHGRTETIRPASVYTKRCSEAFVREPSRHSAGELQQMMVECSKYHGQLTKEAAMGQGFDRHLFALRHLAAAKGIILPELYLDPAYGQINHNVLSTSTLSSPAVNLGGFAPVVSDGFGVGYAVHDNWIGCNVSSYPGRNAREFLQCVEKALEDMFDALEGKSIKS
Briefly: nanoDSF protein stability in presence of CL or β-OG. The format is binding. On the procedure: (§1) NanoDSF is a standard method for the investigation of the folding/unfolding of proteins and the interaction of proteins with effectors/ligands/substrates
(§2) The protein stability was investigated applying nano differential scanning fluorimetry (nanoDSF) using a protein concentration of 1 mg/mL in assay buffer. […] The heating rate has been set to 1 °C per min. A heating ramp from 15 to 95 °C was determined. The nanoDSF data were obtained using a Prometheus NT.48 device. First derivatives were calculated using PR.ThermControl software (NanoTemper Technologies GmbH, Munich, Germany). Experiments were performed at least three times independently as double determination.
A general note: Differential scanning fluorimetry follows unfolding on heating by fluorescence.

The target of assay [2] is T2, CPT II variant P50H (Homo sapiens, UniProt P23786, P50H).
T2 construct: made in house; host or cells: Escherichia coli BL21Gold DE
T2 sequence (P23786 26-658 P50H): T1 sequence (P23786 26-658) with P25H
The description is as above. In kind it is binding. The note with it: 1 mg/mL protein. The procedure:
as §1, §2

In assay [3] the target is T3, CPT II variant S113L (Homo sapiens, UniProt P23786, S113L).
T3 construct: made in house; host or cells: Escherichia coli BL21Gold DE
T3 sequence (P23786 26-658 S113L): T1 sequence (P23786 26-658) with S88L
The description is as above. The format is binding. On the procedure: as §1, §2

For assay [4], the target named is T4, CPT II variant Y479F (Homo sapiens, UniProt P23786, Y479F).
T4 construct: made in house; host or cells: Escherichia coli BL21Gold DE
T4 sequence (P23786 26-658 Y479F): T1 sequence (P23786 26-658) with Y454F
Described as above. In kind it is binding. The procedure: as §1, §2

In assay [5] the target is T2, CPT II variant P50H. Description: Lipid binding assay (membrane lipid strips). Conditions: 0.4 mg enzyme, 100 pmol lipid spots. On the procedure:
(§3) Direct interaction of CPT II WT and variants with phospholipids of the mitochondrial membrane was assessed using membrane lipid strips (Echelon Biosciences, Salt Lake City, Utah, USA). The membrane was spotted with 100 pmol of various cell membrane lipids. The assay was performed following manufacturer’s instructions with some modifications explained in the following. At first, the membrane was washed twice in phosphate buffered saline (PBS). After 1 h incubation with blocking solution (3% BSA fatty acid-free in PBS) at room temperature, the membrane was incubated with purified CPT II WT or variant (final amount 0.4 mg protein) for 2 h at 4 °C. After three washing steps, a-His-Probe (H3) mouse monoclonal antibody (Santa Cruz Biotech, Santa Cruz, CA, USA, 1:1000 dilution in PBS containing 3% BSA) was added to the membrane over night at 4 °C. The membrane was washed three times with PBS and incubated with mouse IgG horseradish peroxidase-linked whole antibody (from sheep, Amersham, Little Chalfont, Buckinghamshire, UK) for 1 h at 4 °C. The interaction was visualized by ECL Western blotting detection reagents (Amersham, Little Chalfont, Buckinghamshire, UK).

The target of assay [6] is T1, CPT II WT. Description: Lipid binding assay (membrane lipid strips). The note with it: 0.4 mg enzyme, 100 pmol lipid spots. The procedure:
as §3

Assay [7] addresses T3, CPT II variant S113L. Description: Lipid binding assay (membrane lipid strips). The note with it: 0.4 mg enzyme, 100 pmol lipid spots. On the procedure:
as §3

The target in assay [8] is T4, CPT II variant Y479F. Description: Lipid binding assay (membrane lipid strips). Conditions: 0.4 mg enzyme, 100 pmol lipid spots. On the procedure:
as §3

Setting [9] is: reference TM of WT in buffer (ΔTM = 0 °C).

As for `CCCCCCCCO[C@@H]1O[C@H](CO)[C@@H](O)[C@H](O)[C@H]1O` [β-OG, n-octyl-β-d-glucopyranoside], the “TM in Buffer with 1 % β-OG” value at CPT II WT [1] (1 mg/mL protein) stood at 49.9 ± 0.7 °C; at CPT II variant P50H [2], 43.5 ± 0.4 °C; at CPT II variant S113L [3] (1 mg/mL protein), 45.3 ± 0.6 °C; on CPT II variant Y479F [4] (1 mg/mL protein) it was 49.0 ± 0.5 °C. Also, the “∆TM in Buffer with 1 % β-OG” value on CPT II WT [1] (setting [9]) came to 13.0 ± 0.7 °C; at CPT II variant S113L [3] (setting [9]), 8.4 ± 0.6 °C; at CPT II variant Y479F [4] (setting [9]), 12.1 ± 0.5 °C.
Turning to phosphatidylserine [PS], the “Signal for interaction on membrane lipid strips” value (“Signal for interaction” for short) on CPT II variant P50H [5] is listed as “reduced”.
On to “phosphatidylinositol (4,5)-bisphosphate [PtdIns(4,5)P2]”, for which the “Signal for interaction” value on CPT II WT [6], on CPT II variant P50H [5], at CPT II variant S113L [7] and on CPT II variant Y479F [8] was “highest signal” each time.
On to “phosphatidylinositol (3,4,5)-trisphosphate [PtdIns(3,4,5)P3]”, for which the “Signal for interaction” value on CPT II WT [6], on CPT II variant P50H [5], at CPT II variant S113L [7] and at CPT II variant Y479F [8] was “highest signal” in each case.
With phosphatidylglycerol [PG], the “Signal for interaction” value on CPT II variant P50H [5] and on CPT II variant S113L [7] was “lower detection signal” throughout.
On to phosphatidylinositol [PI], for which the “Signal for interaction” value is given as “interaction with PI was detected” at CPT II WT [6], “No signal” at CPT II variant P50H [5], “interaction with PI was detected” on CPT II variant S113L [7] and “interaction with PI was detected” on CPT II variant Y479F [8].

(Values after paper PMC8125234, “Cardiolipin Stabilizes and Increases Catalytic Efficiency of Carnitine Palmitoyltransferase II and Its Variants S113L, P50H, and Y479F” (International Journal of Molecular Sciences, 2021).)
